# Results from patent publication US20160129089A1, “COMBINATION THERAPY” (ANTISENSE THERAPEUTICS LTD, priority 2013, published 2016).
# Entries after “also recorded” stand apart in the source; their conditions may differ. Read-outs that look alike come from different tables or passages of the source. Marks after values point to notes of the source that are not given here.
# Experiments:
# [1] = tested on: growth hormone (GH); assay: Phase I trial: exploratory PD, growth hormone levels; type: in vivo, human; details: listed as ATL1103
# Description: (§1) As defined in the statistical analysis plan, the effect of ATL1103 on serum IGF-I was assessed as a change in IGF-I levels versus baseline (starting point) readings for those subjects who received treatment (ATL1103). Pre-dose baseline levels of IGF-I were recorded prior to the commencement of dosing and then measured at weekly intervals until the end of the monitoring period. […] Other exploratory objectives of the study investigated the drug's mechanism of action and broader pharmacological profile, including the pharmacodynamic effects on levels of growth hormone binding protein (GHBP), insulin-like growth factor binding protein 3 (IGFBP-3), acid labile subunit of the insulin-like growth factor binding protein complex (ALS), and growth hormone (GH), as well as in vitro mitogenic and apoptotic parameters.
# [2] = human, in vivo, sc
# From the text: The Phase I trial was a randomized, placebo controlled, double blind study of single ascending doses and multiple doses of ATL1103 in healthy adult male subjects aged between 18 and 45 years. […] Subjects were monitored out to day 35.
# [3] = tested on: human growth hormone receptor mRNA; assay: Inhibition of human growth hormone receptor mRNA levels by antisense oligonucleotides, quantitative real-time PCR, MCF7 cells; type: cell-based; set-up: concentration or dose not given beside the values; details: averages from three experiments
# [4] = tested on: liver IGF-I RNA; assay: Monotherapy and combination mouse study: relative liver IGF-I RNA; type: in vivo, mice; details: week 3, p=0.001
# From the text: (§2) The GHr and IGF-I RNA data were statistically analysed using one-way ANOVA followed by Dunnetts test when comparing treated to saline control. The sIGF-I data were statistically analyzed using one-way […] comparisons.
# [5] = tested on: IGF-I; assay: Phase I trial: pharmacodynamic effect on serum IGF-I levels; type: in vivo, human; details: for Serum IGF-I change from pre-dose, Mean ± SD / Serum IGF-I % change from pre-dose: n=6
# From the text: A secondary objective of this study was to obtain data on the pharmacodynamic effects of ATL1103 on the IGF-I levels in the blood of the trial subjects. Reduction of increased levels of serum IGF-I to normal is the therapeutic endpoint in the treatment of the growth disorder acromegaly, and reducing the effects of IGF-I has a potential role in the treatment of diabetic retinopathy, nephropathy and certain forms of cancer.
# as §1
# [6] = tested on: serum IGF-I; assay: Monotherapy and combination mouse study: serum IGF-I; type: in vivo, mice
# From the text: as §2
# [7] = tested on: insulin-like growth factor binding protein 3 (IGF-BP3); assay: Phase I trial: exploratory PD, IGF-BP3; type: in vivo, human; details: for IGF-BP3 % change from pre-dose / IGF-BP3 mean change from pre-dose: Stage B, n=6
# Description: as §1
# [8] = tested on: serum insulin like growth factor I (IGF-I); assay: Phase II trial in patients with acromegaly: serum IGF-I reduction; type: in vivo, human
# From the text: The primary endpoints or main purposes of the trial were (i) to evaluate the safety and tolerability of ATL1103 in patients with acromegaly, and (ii) to evaluate the single dose and multiple dose pharmacokinetic profiles of ATL1103 via the subcutaneous route in patients with acromegaly.
# [9] = tested on: insulin-like growth factor acid-labile subunit (ALS); assay: Phase I trial: exploratory PD, ALS; type: in vivo, human; details: for ALS % change from pre-dose / ALS mean change from pre-dose: Stage B, n=6
# Description: as §1
# [10] = human, in vivo
# Description: (§3) The primary objective of the Phase I trial was to assess the safety, tolerability and pharmacokinetics (pK) of ATL1103.
# (§4) The Phase I trial was a randomized, placebo controlled, double blind study of single ascending doses and multiple doses of ATL1103 in healthy adult male subjects aged between 18 and 45 years. In the single ascending dose stage of the trial, 24 subjects were administered four dose levels of ATL1103 as a single injection starting at 25 mg and escalating to 75, 250 and 400 mg or placebo. The multiple dose stage was undertaken in 12 subjects, 8 who were to receive six subcutaneous doses of 250 mg of ATL1103 and 4 subjects who received placebo administered on days 1, 3, 5, 7, 14 and 21. Subjects were monitored out to day 35.
# [11] = tested on: liver GHr RNA; assay: Monotherapy and combination mouse study: relative liver GHR RNA; type: in vivo, mice; details: week 3, p=0.001
# From the text: as §2
# [12] = Phase I trial: safety and tolerability of subcutaneous ATL1103 in healthy adult male subjects
# Description: as §3, §4
# [13] = tested on: growth hormone binding protein (GHBP); assay: Phase I trial: exploratory PD, circulating GHBP; type: in vivo, human; details: for GHBP % change from pre-dose / GHBP mean change from pre-dose: Stage B, n=6
# Description: as §1
# [14] = tested on: insulin-like growth factor II (IGF-II); assay: Phase I trial: exploratory PD, IGF-II; type: in vivo, human; details: Stage B, n=6
# [15] = ATL1103 12 mg/kg, 3 times in first week then 2 times weekly
# [16] = ATL1103 25 mg/kg, 2 times weekly, compared to saline control
substance,measurement,setting,value
tcagggcattctttccattc (TCAGGGCATTCTTTCCATTC; chemistry not given here) [ISIS 227452],effect on GH levels,[1],no effect; also recorded: No treatment-related effects were apparent in growth hormone levels (data not shown)
same,AUClast,[2]; 25 mg,3711 ± 822 ng·h/mL
same,Cmax,[2]; 25 mg,466 ± 136 ng/mL
same,Tmax,[2]; 25 mg,3.25 ± 0.5 h
same,AUClast,[2]; 75 mg,21342 ± 4755 ng·h/mL
same,Cmax,[2]; 75 mg,3139 ± 1576 ng/mL
same,Tmax,[2]; 75 mg,3.25 ± 0.96 h
same,AUClast,[2]; 250 mg,88942 ± 11295 ng·h/mL
same,Cmax,[2]; 250 mg,12383 ± 3000 ng/mL
same,Tmax,[2]; 250 mg,2.5 ± 1.29 h
same,AUClast,[2]; 400 mg,151123 ± 29434 ng·h/mL
same,Cmax,[2]; 400 mg,14343 ± 2823 ng/mL
same,Tmax,[2]; 400 mg,3.25 ± 0.96 h
same,% INHIB (inhibitory effect on hGHR mRNA levels),[3],79%
same,reduction of liver IGF-I RNA,[4]; [15],64.3%
same,reduction of liver IGF-I RNA,[4]; [16],76.2%
same,"Serum IGF-I change from pre-dose, Mean ± SD","[5]; Stage B, 250 mg multiple dose, Day 3",+2.65 ± 9.47 nmol/L
same,trend of serum IGF-I levels versus baseline,"[5]; Stage B, from day 14 on, listed as ATL1103","trend in reduction in IGF-I levels from day 14 to day 28; also recorded: For IGF-I there was a clear trend for mean levels to be lower than baseline on days D14, 21, 28, 35 of"
same,Serum IGF-I % change from pre-dose,"[5]; Stage B, Day 3",12%
same,Serum IGF-I % change from pre-dose,"[5]; Stage B, Day 5",6%
same,"Serum IGF-I change from pre-dose, Mean ± SD","[5]; Stage B, Day 5",+0.32 ± 7.42 nmol/L
same,Serum IGF-I % change from pre-dose,"[5]; Stage B, Day 7",6%
same,"Serum IGF-I change from pre-dose, Mean ± SD","[5]; Stage B, Day 7",+0.77 ± 7.51 nmol/L
same,Serum IGF-I % change from pre-dose,"[5]; Stage B, Day 14",−2%
same,"Serum IGF-I change from pre-dose, Mean ± SD","[5]; Stage B, Day 14",-1.43 ± 7.19 nmol/L
same,Serum IGF-I % change from pre-dose,"[5]; Stage B, Day 21",−7%
same,"Serum IGF-I change from pre-dose, Mean ± SD","[5]; Stage B, Day 21",-3.40 ± 3.59 nmol/L
same,Serum IGF-I % change from pre-dose,"[5]; Stage B, Day 28",−7%
same,"Serum IGF-I change from pre-dose, Mean ± SD","[5]; Stage B, Day 28",-3.43 ± 7.53 nmol/L
same,Serum IGF-I % change from pre-dose,"[5]; Stage B, Day 35",−1%
same,"Serum IGF-I change from pre-dose, Mean ± SD","[5]; Stage B, Day 35",-1.9 ± 5.08 nmol/L
same,reduction in mean IGF-I levels versus baseline,"[5]; day 21, p=0.034 one sided t-test",7%
same,reduction of sIGF-I,"[6]; ATL1103 25 mg/kg 2 times weekly monotherapy, week 1, compared to baseline control levels, p<0.013",25%
same,reduction of sIGF-I,"[6]; ATL1103 25 mg/kg, 2 times weekly, week 1, compared to control saline, p=0.0070",36.5%
same,reduction of sIGF-I,"[6]; ATL1103 25 mg/kg, 2 times weekly, week 2, compared to control saline, p=0.004",41.5%
same,reduction of serum IGF-I,"[6]; ATL1103 25 mg/kg, 2 times weekly, week 3, compared to saline control, p=0.003",44.5%
same,effect on IGFBP-3,[7]; Phase I multiple dose stage,significantly reduced
same,IGF-BP3 % change from pre-dose,[7]; Day 7,(−10%)
same,IGF-BP3 mean change from pre-dose,[7]; Day 7,−310.5** ng/ml
same,IGF-BP3 % change from pre-dose,[7]; Day 21,(−8%)
same,IGF-BP3 mean change from pre-dose,[7]; Day 21,−228.3* ng/ml
same,IGF-BP3 % change from pre-dose,[7]; Day 28,(−5%)
same,IGF-BP3 mean change from pre-dose,[7]; Day 28,-160.5 ng/mL
same,reduction in mean sIGF-I levels,"[8]; 200 mg per week dose, week 14",no consistent reduction
same,mean reduction in sIGF-I compared to baseline,"[8]; 400 mg per week (twice weekly 200 mg), 4 patients with acromegaly, week 14",30%
same,mean reduction in sIGF-I compared to baseline,"[8]; 400 mg per week, 3 patients with lower body weights (58-83 kg, below 85 kg), approx. 4.8-6.9 mg/kg, week 14",38%
same,range of sIGF-I reduction,"[8]; 400 mg per week, 3 patients with lower body weights, week 14",28-48%
same,time course of sIGF-I (FIG. 1),"[8]; twice weekly 200 mg (400 mg per week), over the dosing period",progressive rate of reduction
same,effect on ALS,[9]; Phase I multiple dose stage,significantly reduced
same,ALS % change from pre-dose,[9]; Day 7,(−5%)
same,ALS mean change from pre-dose,[9]; Day 7,−115.3 mU/ml
same,ALS % change from pre-dose,[9]; Day 21,(−9%)
same,ALS mean change from pre-dose,[9]; Day 21,−160.7 mU/ml
same,ALS % change from pre-dose,[9]; Day 28,(−10%)
same,ALS mean change from pre-dose,[9]; Day 28,−188.7* mU/ml
same,"injection site reactions, number of events",[10],adverse events were injection site reactions (13).
same,number of treatment-emergent adverse events (TEAE),[10],There were 24 treatment-emergent adverse events (TEAE) in Stage A (19 in the 16 ATL1103-treated
same,overall safety and tolerability,[10],ATL1103 was considered safe and generally well tolerated at the doses used in the study
same,"pain at injection site, number of events",[10],"treated subjects most common adverse events reported were pain at injection site (6), headache"
same,severity of TEAE,[10],"subjects, 5 in the 8 placebo-treated subjects), all reported as mild or moderate. In the ATL1103-"
same,severity of all adverse events,[10],mild to moderate
same,reduction of liver GHr RNA,[11]; [15],99%
same,reduction of liver GHr RNA,[11]; [16],99.7%
same,"headache, number of events","[12]; Stage A, ATL1103-treated subjects",5
same,"influenza-like illness, number of events","[12]; Stage A, ATL1103-treated subjects (after single doses of 400 mg)",2
same,influenza-like illness,[12]; after repeated doses of 250 mg,"single doses of 400 mg ATL1103, this was not seen after repeated doses of 250 mg."
same,GHBP % change from pre-dose,[13]; Day 7,(0%)
same,GHBP mean change from pre-dose,[13]; Day 7,-31.2 pmol/L
same,GHBP % change from pre-dose,[13]; Day 21,(−16%)
same,GHBP mean change from pre-dose,[13]; Day 21,−169.5** pmol/L
same,GHBP % change from pre-dose,[13]; Day 28,(−19%)
same,GHBP mean change from pre-dose,[13]; Day 28,−233.3* pmol/L
same,reduction of GHBP,"[13]; day 21, p=0.007",16%
same,reduction of GHBP,"[13]; day 28, one week past the last dose, p<0.05",19%
same,IGF-II % change from pre-dose,[14]; Day 7,(−14%)
same,IGF-II mean change from pre-dose,[14]; Day 7,−101.8*** ng/ml
same,IGF-II % change from pre-dose,[14]; Day 21,(−8%)
same,IGF-II mean change from pre-dose,[14]; Day 21,-57.5 ng/mL
same,IGF-II % change from pre-dose,[14]; Day 28,(−5%)
same,IGF-II mean change from pre-dose,[14]; Day 28,-29.2 ng/mL
